Target: SGK1 (human) (UniProt O00141)
Assay: Flashplate

Chain of SGK1 (human) (O00141 whole entry, looked up): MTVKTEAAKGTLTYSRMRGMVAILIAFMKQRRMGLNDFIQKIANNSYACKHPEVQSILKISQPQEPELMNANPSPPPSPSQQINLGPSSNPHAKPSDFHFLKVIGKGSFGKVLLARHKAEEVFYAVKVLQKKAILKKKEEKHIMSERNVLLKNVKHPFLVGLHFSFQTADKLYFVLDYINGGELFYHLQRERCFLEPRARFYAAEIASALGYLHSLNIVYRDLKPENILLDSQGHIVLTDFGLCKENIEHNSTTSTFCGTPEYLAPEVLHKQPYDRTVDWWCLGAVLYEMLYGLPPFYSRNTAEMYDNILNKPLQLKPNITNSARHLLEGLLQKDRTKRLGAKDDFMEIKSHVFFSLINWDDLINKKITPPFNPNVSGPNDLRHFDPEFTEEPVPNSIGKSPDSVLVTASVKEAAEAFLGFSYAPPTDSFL

`CN(C)CC(=O)N[C@H](COc1cncc(-c2ccc3cnccc3c2)c1)Cc1c[nH]c2ccccc12` and `N[C@H](COc1cncc(/C=C/c2ccncc2)c1)Cc1c[nH]c2ccccc12` are the same in Ki: 7.94 µM for the first, 7.94 µM for the second.

Compared with `CNC(=O)c1cnc(N)c2c(-c3ccc(NC(=O)Nc4cccc(Cl)c4)cc3)csc12`, `Cc1cccc(NC(=O)Nc2ccc(-c3csc4ccnc(N)c34)cc2)c1` is higher in Ki: 3.16 µM for the first, over 10 µM for the second. The first binds more tightly here.

Compared with `O=c1c(NCc2ccc(Cl)c(Cl)c2)c(Nc2ccncc2)c1=O`, `O=c1c(NCc2ccc(Cl)cc2)c(Nc2ccncc2)c1=O` is 4-fold higher in Ki: 0.501 µM for the first, 2 µM for the second.

`CNC1CCN(c2nc3[nH]cc(C(=O)O)c(=O)c3c(C)c2Br)C1` (stereo unspecified) and `CC1CSc2c(C(=O)O)c(=O)c3cc(F)c(N4CC[C@@H](N)C4)c(F)c3n21` (stereo partly specified) cannot be ordered by Ki: over 10 µM for the first, over 10 µM for the second.

Going from `COc1cccc(C(CN)NC(=O)c2ccc(-c3ccncc3)cc2)c1` (stereo unspecified) to `COc1cccc([C@@H](C)NC(=O)c2ccc(-c3ccncc3)cc2)c1`, the Ki rises from 0.251 µM to 0.398 µM (1.6-fold).

`COc1cc(Nc2ncnc3ccc(-c4ccc(CN5C[C@@H]6C(CO)[C@@H]6C5)cc4)cc23)ccc1Oc1ccccc1` (stereo partly specified) and `COc1cc(-c2ccc3[nH]nc(C(=O)Nc4ccccc4)c3c2)ccc1O` cannot be ordered by Ki: over 10 µM for the first, over 10 µM for the second.

`Cc1ccc2nccc(NC(=O)Nc3cccc(C(F)(F)F)n3)c2c1` and `O=C(Nc1cccc(C(F)(F)F)n1)Nc1ccnc2c(Cl)cccc12` cannot be ordered by Ki: over 10 µM for the first, over 10 µM for the second.

Going from `O=C(Cc1ccccc1)Nc1cccc(-c2nc3sccn3c2-c2ccnc(Nc3ccc(N4CCOCC4)cc3)n2)c1` to `Cc1nc(N)sc1-c1ccnc(Nc2ccc(N3CCOCC3)cc2)n1`, the Ki falls from over 10 µM to 0.251 µM. The second binds more tightly here.

Compared with `CCOC(=O)c1cccc2[nH]c(-c3ccc(N4CCC(N)C4)cc3)nc12` (stereo unspecified), `NC(=O)c1cccc2[nH]c(-c3ccncc3)nc12` is lower in Ki: over 10 µM for the first, 6.31 µM for the second. The second binds more tightly here.

Compared with `CC(=O)Nc1cccc(CNc2c(Nc3ccc4[nH]ncc4c3)c(=O)c2=O)c1`, `NCCC(C(=O)Nc1ccc2[nH]ncc2c1)c1ccc(Cl)c(Cl)c1` (stereo unspecified) is 7.9-fold lower in Ki: 0.158 µM for the first, 0.02 µM for the second. The second binds more tightly here.

`O=c1[nH]cc(I)c2nc(-c3ccccc3)cn12` and `O=c1[nH]c2cc(-c3ccccc3)cnc2[nH]1` cannot be ordered by Ki: over 10 µM for the first, over 10 µM for the second.

First: CSc1cnc2c(ccc3cnccc32)c1O
Second: CS(=O)(=O)NCCOc1cncc(-c2ccc3cnccc3c2)c1
The Ki of the first is 25-fold lower: 0.158 µM for the first, 3.98 µM for the second.

`Nc1nccc2scc(-c3ccc(NC(=O)Nc4ccccc4C(F)(F)F)cc3)c12` and `Nc1nccc2scc(-c3ccc(NC(=O)Nc4cccc(F)c4)cc3)c12` cannot be ordered by Ki: over 10 µM for the first, over 10 µM for the second.

`O=C1NCCc2[nH]c(-c3ccnc(-c4ccccc4F)c3)cc21` and `O=C1NCCc2[nH]c(-c3ccnc(-c4cnc5ccccc5c4)c3)cc21` cannot be ordered by Ki: over 10 µM for the first, over 10 µM for the second.

Going from `COc1cccc([C@@H](C)NC(=O)c2ccc(-c3ccncn3)cc2)c1` to `COc1cccc([C@@H](C)NC(=O)c2ccc(-c3ccncc3)c(F)c2)c1`, the Ki falls from 0.631 µM to 0.316 µM (2-fold). The second binds more tightly here.

Going from `O=C(N/N=C/c1ccc(O)cc1O)Nc1cccc2nsnc12` to `Cc1ccc(F)c(NC(=O)Nc2ccc(-c3ccc4nccnc4c3N)cc2)c1`, the Ki rises from 0.126 µM to over 10 µM.

`CC(C)(CO)CNc1nccc(-c2c(-c3ccc(F)cc3)nc3c(Cl)nccn23)n1` and `CN(C)CC(C)(C)CNc1nccc(-c2c(-c3ccc(F)cc3)nc3cnccn23)n1` cannot be ordered by Ki: over 10 µM for the first, over 10 µM for the second.

Going from `CC1(C)CC(=O)C2=C(C1)Nc1cc(Cl)ccc1S2` to `COc1cc(/C=C2/SC(=S)NC2=O)ccc1O`, the Ki falls from over 10 µM to 3.16 µM.

`Cc1cc(O)ccc1-n1cc(C(N)=O)c(=O)c2ccc(-c3ccncc3)cc21` and `Fc1ccc(-c2nc3sccn3c2-c2ccncc2)cc1` cannot be ordered by Ki: over 10 µM for the first, over 10 µM for the second.

`Cc1cc(C)cc(NC(=O)Nc2ccc(-c3cccc4sncc34)cc2)c1` and `Cc1cccc(NC(=O)Nc2ccc(-c3cncc4c3c(N)nn4C)cc2)c1` cannot be ordered by Ki: over 10 µM for the first, over 7.94 µM for the second.

`COc1ccc(/C=N/Nc2ncnc3c2[nH]c2ccccc23)cc1OC` and `COc1ccc(/C=C2/C(=O)ON=C2c2ccc(Br)cc2)cc1OC` cannot be ordered by Ki: over 10 µM for the first, over 10 µM for the second.

`CC(C)(C)OC(=O)n1cc(-c2cncn2C2CCCCC2)c2ccccc21` and `O=c1cc(-c2ccncc2)nc(NC2CCCCC2)[nH]1` cannot be ordered by Ki: over 10 µM for the first, over 10 µM for the second.

Going from `Cc1cccc(/C=N/Nc2cc(N3CCOCC3)nc(OCCc3ccccn3)n2)c1` to `Cc1cccc(NC(=O)Nc2ccc(-c3csc4c(C#CCN5CCOCC5)cnc(N)c34)cc2)c1`, the Ki falls from over 10 µM to 6.31 µM.

`Fc1ccc(-c2nc3occn3c2-c2ccnc(NC3CCNCC3)n2)cc1` and `COc1nccc(-c2c(-c3ccc(F)cc3)ncn2[C@H]2CC[C@H](O)CC2)n1` cannot be ordered by Ki: over 10 µM for the first, over 10 µM for the second.

`CN(c1ccccc1CNc1nc(N)nc2[nH]ccc12)S(C)(=O)=O` and `Cc1nc2ccc(NS(=O)(=O)c3ccc(N)cc3)cc2nc1C` cannot be ordered by Ki: over 10 µM for the first, over 10 µM for the second.

`CCN1CCN(Cc2ccc(NC(=O)Nc3ccc(Oc4cc(NC)ncn4)cc3)cc2C(F)(F)F)CC1` and `Nc1ncnc2onc(-c3ccc(NC(=O)Nc4cccc(C(F)(F)F)c4)cc3)c12` cannot be ordered by Ki: over 6.31 µM for the first, over 10 µM for the second.

First: Cc1cc(C)cc(NC(=O)Nc2ccc(-c3cccc4c3CNC4=O)c(C)c2)c1
Second: Cc1ccc(-c2ccc(NC(=O)Nc3cccc(Br)c3)cc2)c2c(N)n[nH]c12
The Ki of the first is higher: over 10 µM for the first, 5.01 µM for the second.

Going from `O=C(O)c1cc2c(-c3ccccc3)cncc2s1` to `Brc1ccc2[nH]nc(-c3ccccc3)c2c1`, the Ki rises from 3.98 µM to over 10 µM. The first binds more tightly here.

Going from `Cc1ccc(Cn2cc(-c3ccc4[nH]ncc4c3)nn2)c(C)c1` to `c1cc2[nH]ncc2cc1-c1cn(CC2CCOCC2)nn1`, the Ki rises from 3.16 µM to 7.94 µM (2.5-fold). The first binds more tightly here.

Going from `CC[C@@H]1C(=O)N(C)c2cnc(Nc3ccc(C(=O)NC4CCN(C)CC4)cc3OC)nc2N1C1CCCC1` to `Cc1cc(Nc2ncc(F)c(N[C@H]3[C@@H](C(N)=O)[C@@H]4C=C[C@H]3C4)n2)ccc1N1CCN(C)CC1`, the Ki falls from over 10 µM to 1.58 µM.

`Nc1n[nH]c2nnc(-c3ccccc3)c(-c3ccccc3)c12` and `O=c1nc(-c2ccc3[nH]ncc3c2)cc(-c2ccccc2)[nH]1` are within 1.5-fold of each other in Ki: 2.51 µM for the first, 2 µM for the second.

`COc1ccc(NC(=O)Nc2ccc(-c3csc4c(-c5cnn(CC(C)(C)O)c5)cnc(N)c34)cc2)cc1` and `Cc1cccc(NC(=O)Nc2ccc(-c3csc4c(-c5cnn(C)c5)cnc(N)c34)cc2)c1` cannot be ordered by Ki: over 10 µM for the first, over 10 µM for the second.

`Cc1nccn2c(-c3ccnc(NCC(C)(C)C(=O)O)n3)c(-c3ccc(F)cc3F)nc12` and `COc1ccc(-c2cc3nccn3c(Nc3ncccc3C(N)=O)n2)cc1OC` cannot be ordered by Ki: over 10 µM for the first, over 10 µM for the second.

`Cc1nc2ccccn2c1-c1csc(Nc2ccc(O)cc2)n1` and `c1ccc(CNc2nc(-c3ccc4[nH]ncc4c3)cs2)cc1` cannot be ordered by Ki: over 10 µM for the first, over 6.31 µM for the second.

`COc1ccc2c(NC(=O)Nc3cc(C(F)(F)F)ccn3)ccnc2c1` and `Nc1c(-c2ccc(NC(=O)Nc3cccc(C(F)(F)F)c3)cc2)ccc2nccnc12` cannot be ordered by Ki: over 10 µM for the first, over 10 µM for the second.

`Nc1nonc1-n1nnc(C(=O)N/N=C/c2ccncc2)c1-c1ccccc1` and `Cn1cc(C(CN)c2cncc(/C=C/c3ccncc3)c2)c2ccccc21` (stereo unspecified) cannot be ordered by Ki: over 10 µM for the first, over 10 µM for the second.

`CC(C)OC1=NNC(=O)/C1=C/c1c[nH]c2ccccc12` and `Cc1ccc2c(c1)NC(=O)c1ccccc1N2` cannot be ordered by Ki: over 10 µM for the first, over 10 µM for the second.

`CC(C)S(=O)(=O)n1c(N)nc2ccc(-c3c(-c4ccc(F)cc4)nc4sccn34)cc21` and `CCCS(=O)(=O)Nc1ccc(-c2ccc3[nH]nc(NC(C)=O)c3c2)cc1` cannot be ordered by Ki: over 10 µM for the first, over 10 µM for the second.

Compared with `NC(=O)c1sc2ccc(Cl)c(Cl)c2c1NC(=O)c1ccc(Cl)cc1`, `NC(=O)c1cc(-c2ccnc(N)n2)[nH]c1-c1ccc(Cl)cc1Cl` is lower in Ki: over 10 µM for the first, 1.58 µM for the second. The second binds more tightly here.

Compared with `c1ccc(Cc2cc(-c3ccc4[nH]ncc4c3)on2)cc1`, `NS(=O)(=O)c1cccc(Nc2ncc3ccn(Cc4ccccc4)c3n2)c1` is 2.5-fold higher in Ki: 1.58 µM for the first, 3.98 µM for the second. The first binds more tightly here.

`NCCCNS(=O)(=O)c1cccc(C(=O)Nc2ccc(-c3n[nH]c(=O)c4ccccc34)cc2)c1` and `Nc1n[nH]c2cc(-c3ccc(NC(=O)Nc4cccc(C(F)(F)F)c4)cc3)ccc12` cannot be ordered by Ki: over 10 µM for the first, over 10 µM for the second.

`Cc1cccc(Cl)c1-c1cccc2c(CCCOc3cccc4ccccc34)c(C(=O)NCCOCCOCCN)[nH]c12` and `COC(=O)c1ccccc1-c1ccc2c(c1)Nc1ccccc1NC2=O` cannot be ordered by Ki: over 10 µM for the first, over 10 µM for the second.

First: NC1CCCCC1Nc1nccc(-c2c[nH]c3ncccc23)n1 (stereo unspecified)
Second: O[C@H]1CC[C@H](Nc2cc(Cl)nc(-c3c[nH]c4ncccc34)n2)CC1
The Ki of the first is 1.6-fold higher: 1.58 µM for the first, 1 µM for the second. The second binds more tightly here.

`N[C@@H](COCc1ccccc1)COc1cncc(/C=C/c2ccncc2)c1` and `NCCCOc1cncc(/C=C/c2ccncc2)c1` cannot be ordered by Ki: over 10 µM for the first, over 10 µM for the second.

First: OC1CCN(c2ncnc3[nH]cc(-c4ccccc4)c23)CC1
Second: O=C(Nc1cnc2[nH]cc(-c3ccccc3)c2c1)c1cccc(F)c1F
The Ki of the first is 2-fold lower: 3.98 µM for the first, 7.94 µM for the second.

Compared with `COc1ccc2c(c1)/C(=C/c1cnc[nH]1)C(O)=N2`, `COc1cc(/C=C(\C#N)c2nc3ccccc3[nH]2)c(Br)cc1O` is 6.3-fold higher in Ki: 1 µM for the first, 6.31 µM for the second.

Compared with `NCCCn1cc(-c2cc(-c3cc4ccccc4s3)c3[nH]ncc3c2)c2nc(N)ncc21`, `NC(=O)Cn1cc(-c2cc(-c3cc4ccccc4s3)c3[nH]ncc3c2)c2nc(N)ncc21` is higher in Ki: 0.501 µM for the first, over 10 µM for the second.

Compared with `CNS(=O)(=O)c1ccccc1Nc1nc(Nc2cc(OC)c(OC)c(OC)c2)ncc1Cl`, `COc1ccc(Nc2nccc(Nc3c(N[C@H](C)C(C)(C)C)c(=O)c3=O)n2)cc1OC` is lower in Ki: over 5.01 µM for the first, 2 µM for the second.

Going from `CSc1nn(-c2ccccn2)c(N)c1C(N)=O` to `Cc1cccc(-c2[nH]c(-c3ccnc(N)n3)cc2C(N)=O)c1C`, the Ki rises from 6.31 µM to over 10 µM. The first binds more tightly here.

Compared with `O=C1NCCc2[nH]c(-c3ccncc3)cc21`, `O=C1Nc2ccccc2Nc2ccccc21` is higher in Ki: 5.01 µM for the first, over 10 µM for the second. The first binds more tightly here.

`Cc1c(C)n(Cc2ccccc2)c2ccc(C(=O)Nc3nc[nH]n3)cc12` and `CC1=NN(c2cccc(Br)c2)C(=O)/C1=C/c1c(C)c(C#N)c2nc3ccccc3n2c1O` cannot be ordered by Ki: over 10 µM for the first, over 10 µM for the second.

Going from `Cc1nnc(-c2cc3c(Oc4ccc(C(F)(F)F)cc4)cncc3s2)o1` to `O=c1nc(-c2cc3c(Oc4ccc(I)cc4)cncc3s2)[nH]o1`, the Ki falls from over 10 µM to 0.794 µM.

`O=C1CCCc2oc3cc(C(F)(F)F)ccc3c(=O)c21` and `O=c1[nH]sc2c1c(=O)c1cc(F)c(NCc3ccccc3)c(F)c1n2C1CC1` cannot be ordered by Ki: over 10 µM for the first, over 10 µM for the second.

First: Oc1ccc(Nc2[nH]nc(-c3ccc(O)cc3)c2-c2ccc(O)cc2)cc1
Second: CC(C)N(C(=O)Nc1ccc2nc(-c3ccco3)c(-c3ccco3)nc2c1)C(C)C
The Ki of the first is lower: 0.1 µM for the first, over 10 µM for the second. The first binds more tightly here.

`CCOc1nc(NC(=O)Cc2cc(OC)c(S(C)(=O)=O)cc2OC)cc(N)c1Cl` and `CCOc1nc(C(=O)NCc2cccnc2)cc(N)c1C#N` cannot be ordered by Ki: over 10 µM for the first, over 10 µM for the second.

With `O=c1[nH]cnc2c1sc1c(Cl)ccc(Cl)c12` the Ki was over 10 µM.
